According to BindingDB's records for patent US20230399319 (Japan Tobacco, 2023):

These compounds were tested against NACHT, LRR and PYD domains-containing protein 3 (Homo sapiens, UniProt Q96P20) (assay: Evaluation of NLRP3 Inflammasome Inhibitory Activity Assay).
NACHT, LRR and PYD domains-containing protein 3, sequence (Q96P20 whole entry, the tested form may be a part): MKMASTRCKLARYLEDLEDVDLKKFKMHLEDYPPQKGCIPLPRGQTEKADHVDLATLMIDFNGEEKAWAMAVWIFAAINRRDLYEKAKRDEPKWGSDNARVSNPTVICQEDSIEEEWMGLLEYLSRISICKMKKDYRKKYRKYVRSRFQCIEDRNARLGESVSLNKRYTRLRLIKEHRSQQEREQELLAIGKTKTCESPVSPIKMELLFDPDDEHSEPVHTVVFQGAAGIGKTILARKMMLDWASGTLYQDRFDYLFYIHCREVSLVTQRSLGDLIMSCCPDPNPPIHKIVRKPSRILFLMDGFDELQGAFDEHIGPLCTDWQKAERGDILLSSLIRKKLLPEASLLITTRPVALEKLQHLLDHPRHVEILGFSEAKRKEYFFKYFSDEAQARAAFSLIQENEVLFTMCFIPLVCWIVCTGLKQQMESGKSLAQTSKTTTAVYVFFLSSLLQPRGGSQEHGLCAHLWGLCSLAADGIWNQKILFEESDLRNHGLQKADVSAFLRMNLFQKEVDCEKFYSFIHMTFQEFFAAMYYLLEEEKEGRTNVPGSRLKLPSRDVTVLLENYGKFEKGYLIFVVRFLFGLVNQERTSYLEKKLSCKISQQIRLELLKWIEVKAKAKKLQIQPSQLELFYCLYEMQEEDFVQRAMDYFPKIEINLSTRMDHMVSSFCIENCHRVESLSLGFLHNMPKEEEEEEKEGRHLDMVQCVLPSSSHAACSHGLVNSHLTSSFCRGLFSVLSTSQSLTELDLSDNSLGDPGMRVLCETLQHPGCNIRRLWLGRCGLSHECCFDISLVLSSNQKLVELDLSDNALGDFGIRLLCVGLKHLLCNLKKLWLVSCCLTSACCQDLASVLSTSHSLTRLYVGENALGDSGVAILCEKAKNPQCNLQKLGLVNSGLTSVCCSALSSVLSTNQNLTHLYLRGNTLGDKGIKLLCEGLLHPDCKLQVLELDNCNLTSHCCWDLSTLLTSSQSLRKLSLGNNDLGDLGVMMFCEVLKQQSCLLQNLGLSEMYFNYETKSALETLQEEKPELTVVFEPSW
Description: The NLRP3 inflammasome inhibitory activity of test compounds were evaluated CM the basis of the inhibitory activity of the IL-1β, production in THP1-Null cells (Product Number: thp-null, InvivoGen). […] A solution containing a test compound (20 μL/well) was added to test compound-setting wells. […] The supernatant of the culture was cryonically stored (set at −20° C.) until measurement of IL-1β.
`CCOC[C@H]1OCCN(S(=O)(=O)NC(=O)c2coc(Nc3cc(C)c(F)cc3C)n2)C[C@@H]1OC` [US20230399319, Example 3-006] gave an IC50 of 30 nM.
With `COCC(C)CN(C)S(=O)(=O)NC(=O)c1coc(Nc2cc(C(F)(F)F)ccc2C)n1` (configuration not stated) [US20230399319, Example 2-296] the IC50 was 81 nM.
`Cc1ccc(C(F)(F)F)cc1Nc1nc(C(=O)NS(=O)(=O)N(Cc2ccccc2)C(C)C)co1` [US20230399319, Example 2-207] was tested, and the IC50 was 180 nM.
For `Cc1ccc(C(F)(F)F)cc1Nc1nc(C(=O)NS(=O)(=O)N2CCCCCC2)co1` [US20230399319, Example 2-145], the IC50 was 42 nM.
For `Cc1ccc(C(F)(F)F)cc1Nc1nc(C(=O)NS(=O)(=O)N2CCCC(S(=O)(=O)C(C)C)CC2)co1` (configuration not stated) [US20230399319, Example 2-317], the IC50 was 27 nM.
Compound `CCOCC1CCN(S(=O)(=O)NC(=O)c2coc(Nc3cc(OC)c(F)cc3C)n2)CCO1` (configuration not stated) [US20230399319, Example 2-352] has an IC50 of 26 nM.
`Cc1ccc(C(F)(F)F)cc1Nc1nc(C(=O)NS(=O)(=O)N2C[C@H]3COC[C@@H]3C2)co1` [US20230399319, Example 2-201] was tested, and the IC50 was 320 nM.
In the case of `Cc1ccc(C(F)(F)F)cc1Nc1nc(C(=O)NS(=O)(=O)N2CCCN(c3ncccn3)[C@H](C)C2)co1` [US20230399319, Example 2-313], the IC50 is reported as 22 nM.
With `Cc1cn(C(C)C)nc1Nc1nc(C(=O)NS(=O)(=O)N2CCOCC(F)(F)C2)co1` [US20230399319, Example 2-212] the IC50 was 280 nM.
For `Cc1ccc(C)c(Nc2nc(C(=O)NS(=O)(=O)N3CCCC(C#N)CC3)co2)c1` (configuration not stated) [US20230399319, Example 2-300], the IC50 was 190 nM.
With `CCC1(C#N)CCCN(S(=O)(=O)NC(=O)c2coc(Nc3cc(C(F)(F)F)ccc3C)n2)CC1` (configuration not stated) [US20230399319, Example 2-240] the IC50 was 31 nM.
`CCOC[C@@H]1CCCN1S(=O)(=O)NC(=O)c1coc(Nc2cc(C)ccc2C)n1` [US20230399319, Example 2-314] showed an IC50 of 210 nM.
`Cc1cn(C(C)C(F)(F)F)nc1Nc1nc(C(=O)NS(=O)(=O)N2CCCOCC2)co1` (configuration not stated) [US20230399319, Example 2-178] gave an IC50 of 880 nM.
With `Cc1ccc(C(F)(F)F)cc1Nc1nc(C(=O)NS(=O)(=O)N(C)CCS(C)(=O)=O)co1` [US20230399319, Example 2-280] the IC50 was 420 nM.
For `CN(C)S(=O)(=O)NC(=O)c1coc(Nc2cc(C(F)(F)F)ccc2C2CC2)n1` [US20230399319, Example 2-067], the IC50 was 92 nM.
In the case of `Cc1ccc(C(F)(F)F)cc1Nc1nc(C(=O)NS(=O)(=O)N2CCCS(=O)(=O)CC2)co1` [US20230399319, Example 2-239], the IC50 is reported as 170 nM.
With `Cc1cc(Nc2nc(C(=O)NS(=O)(=O)N3CCCOCC3)co2)c(C(C)C)cc1F` [US20230399319, Example 2-334] the IC50 was 26 nM.
`Cc1cc(Nc2nc(C(=O)NS(=O)(=O)N3CCCOCC3)co2)c(C)cc1F` [US20230399319, Example 2-339] showed an IC50 of 30 nM.
`Cc1cc(Cl)c(C(C)C)cc1Nc1nc(C(=O)NS(=O)(=O)N(C)C)co1` [US20230399319, Example 2-027] was tested, and the IC50 was 34 nM.
`Cc1ccc(C(F)(F)F)cc1Nc1nc(C(=O)NS(=O)(=O)N2CCN(c3ncccn3)CC2)co1` [US20230399319, Example 2-265] gave an IC50 of 1100 nM.
In the case of `COC1CCN(S(=O)(=O)NC(=O)c2coc(Nc3cc(C(F)(F)F)ccc3C)n2)C1` (configuration not stated) [US20230399319, Example 2-199], the IC50 is reported as 160 nM.
Compound `COC1COCCN(S(=O)(=O)NC(=O)c2coc(Nc3cc(C(C)C)c(F)cc3C)n2)C1` (configuration not stated) [US20230399319, Example 2-343] has an IC50 of 16 nM.
For `CC(C)c1ccc(C(F)(F)F)cc1Nc1nc(C(=O)NS(=O)(=O)N2CCCOCC2)co1` [US20230399319, Example 2-072], the IC50 was 27 nM.
`Cc1ccc(C(F)(F)F)cc1Nc1nc(C(=O)NS(=O)(=O)N2CCC(c3ccccc3)CC2)co1` [US20230399319, Example 2-282] was tested, and the IC50 was 2500 nM.
For `CCC(C)n1cc(C)c(Nc2nc(C(=O)NS(=O)(=O)N3CCCOCC3)co2)n1` (configuration not stated) [US20230399319, Example 2-200], the IC50 was 1100 nM.
Work on `Cc1ccc(C(C)C)cc1Nc1nc(C(=O)NS(=O)(=O)N2CCOC(CN(C)C)CC2)co1` (configuration not stated) [US20230399319, Example 2-341] yielded an IC50 of 88 nM.
In the case of `CCOCC1CCN(S(=O)(=O)NC(=O)c2coc(Nc3cc(C)c(F)cc3C)n2)CCO1` (configuration not stated) [US20230399319, Example 2-340], the IC50 is reported as 12 nM.
Work on `Cc1ccc(C(F)(F)F)cc1Nc1nc(C(=O)NS(=O)(=O)N(C)Cc2cccnc2)co1` [US20230399319, Example 2-134] yielded an IC50 of 79 nM.
Work on `Cc1ccc(C(F)(F)F)cc1Nc1nc(C(=O)NS(=O)(=O)N(C)Cc2ccccc2)co1` [US20230399319, Example 2-163] yielded an IC50 of 49 nM.
In the case of `Cc1ccc(C(F)(F)F)cc1Nc1nc(C(=O)NS(=O)(=O)N2CCC(C)C2)co1` (configuration not stated) [US20230399319, Example 2-019], the IC50 is reported as 70 nM.
In the case of `CCC(=O)N(C)C1CCCN(S(=O)(=O)NC(=O)c2coc(Nc3cc(C(F)(F)F)ccc3C)n2)C1` (configuration not stated) [US20230399319, Example 2-255], the IC50 is reported as 210 nM.
In the case of `Cc1ccc(C(F)(F)F)cc1Nc1nc(C(=O)NS(=O)(=O)N2CCCC(C#N)(C(=O)N3CCCC3)CC2)co1` (configuration not stated) [US20230399319, Example 2-261], the IC50 is reported as 28 nM.
`Cc1ccc(C)c(Nc2nc(C(=O)NS(=O)(=O)N3CCCOCC3)co2)c1C` [US20230399319, Example 2-114] showed an IC50 of 340 nM.
With `Cc1ccc(C)c(Nc2nc(C(=O)NS(=O)(=O)N3CCOC(CC#N)CC3)co2)c1` (configuration not stated) [US20230399319, Example 2-349] the IC50 was 1200 nM.
Compound `Cc1ccc(C(F)(F)F)cc1Nc1nc(C(=O)NS(=O)(=O)N2CCC(F)(F)CC2)co1` [US20230399319, Example 2-023] has an IC50 of 130 nM.
Compound `CC(C)c1ccc(C(F)(F)F)cc1Nc1nc(C(=O)NS(=O)(=O)N2CCCC2CO)co1` (configuration not stated) [US20230399319, Example 2-124] has an IC50 of 47 nM.
For `Cc1ccc(C(F)(F)F)cc1Nc1nc(C(=O)NS(=O)(=O)N2CCC2C)co1` (configuration not stated) [US20230399319, Example 2-078], the IC50 was 100 nM.
Compound `Cc1ccc(C(F)(F)F)cc1Nc1nc(C(=O)NS(=O)(=O)N2CCCC(C#N)CC2)co1` (configuration not stated) [US20230399319, Example 2-141] has an IC50 of 9.7 nM.
Compound `Cc1ccc(C(F)(F)F)cc1Nc1nc(C(=O)NS(=O)(=O)N(C)CC#N)co1` [US20230399319, Example 2-108] has an IC50 of 130 nM.
`Cc1ccc(C(F)(F)F)cc1Nc1nc(C(=O)NS(=O)(=O)N2CC(F)(F)C2)co1` [US20230399319, Example 2-077] was tested, and the IC50 was 530 nM.
In the case of `COCCCN(C)S(=O)(=O)NC(=O)c1coc(Nc2cc(C(F)(F)F)ccc2C)n1` [US20230399319, Example 2-235], the IC50 is reported as 94 nM.
For `Cc1ccc(C(C)C)cc1Nc1nc(C(=O)NS(=O)(=O)N(C)C)co1` [US20230399319, Example 2-040], the IC50 was 130 nM.
`Cc1ccc(C(F)(F)F)cc1Nc1nc(C(=O)NS(=O)(=O)N2CCCC(F)(F)CC2)co1` [US20230399319, Example 2-234] showed an IC50 of 50 nM.
For `CC1CCN(S(=O)(=O)NC(=O)c2coc(Nc3c4c(c(F)c5c3CCC5)CCC4)n2)C1` (configuration not stated) [US20230399319, Example 2-008], the IC50 was 180 nM.
In the case of `COC[C@H]1CCCN1S(=O)(=O)NC(=O)c1coc(Nc2cc(C(F)(F)F)ccc2C)n1` [US20230399319, Example 2-052], the IC50 is reported as 130 nM.
For `CCCS(=O)(=O)C1CCCN(S(=O)(=O)NC(=O)c2coc(Nc3nn(C(C)C)cc3C)n2)CC1` (configuration not stated) [US20230399319, Example 2-302], the IC50 was 36 nM.
Compound `Cc1ccc(C(F)(F)F)cc1Nc1nc(C(=O)NS(=O)(=O)N2CCOC3(COC3)C2)co1` [US20230399319, Example 2-017] has an IC50 of 83 nM.
